The values below come from patent US20050038058A1, “Novel compounds and methods for therapy” (Institute of Organic Chemistry and Biochemistry, priority 2001, published 2005).

Converted amounts (≈) assume the structure as drawn.

Series [1] has as its system MT-4 cells. The series is described as follows: MT-4 cell toxicity (trypan blue exclusion). Format: cell-based. The note with it: reduction of cell viability; Table 2. In outline: (§1)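 MT-4 cells (5×10^4/well) exposed to compound dilutions for 5 days at 37 °C; CC50 = concentration cutting living cells by 50%, counted microscopically with trypan blue exclusion. CEM cytostatic CC50 defined likewise, by a previously described method.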

Series [2] concerns monocyte/macrophages (M/M). Description: Cell viability in monocyte/macrophages (M/M). The note with it: reduction of cell viability; Table 2. Format: cell-based, human.
The subject of series [3] is CrFK cells. The series is described as follows: Toxicity in CrFK cells. Format: cell-based, feline. The note with it: Table 2.
Series [4] relates to CEM cells. The series is described as follows: Inhibition of CEM cell growth (cytostatic activity). In kind it is cell-based. An outline of the steps:
as §1

The subject of series [5] is CMV AD-169. The series is described as follows: Antiviral activity, CMV AD-169, Table 1a. In kind it is cell-based.
For series [6], the system named is VZV TK + YS. Description: Antiviral activity, VZV TK+ YS, Table 1a. Format: cell-based.
In series [7] the test system is CMV Davis. The series is described as follows: Antiviral activity, CMV Davis, Table 1a. In kind it is cell-based.
The subject of series [8] is VZV TK − 07/1. The series is described as follows: Antiviral activity, VZV TK- 07/1, Table 1a. Format: cell-based.
Series [9] relates to VZV TK − YS/R. The series is described as follows: Antiviral activity, VZV TK- YS/R, Table 1a. Format: cell-based.
For series [10], the system named is HIV-1.
Series [11] deals with HSV-1 (KOS). Description: Antiviral activity, HSV-1 (KOS), Table 1a. In kind it is cell-based.
The test system of series [12] is HSV-2 (G). Description: Antiviral activity, HSV-2 (G), Table 1a. In kind it is cell-based.
Series [13] deals with VZV TK + OKA. The series is described as follows: Antiviral activity, VZV TK+ OKA, Table 1a. Format: cell-based.
The subject of series [14] is MSV. Description: Antiviral activity, MSV, Table 1a. Format: cell-based.
For series [15], the system named is HSV-1 TK- VMW 1837. The series is described as follows: Antiviral activity, HSV-1 TK- VMW 1837, Table 1a. Format: cell-based.
The test system of series [16] is HIV-2. Description: Antiviral activity, HIV-2, Table 1a. In kind it is cell-based.
Setting [17] is: 50% cytostatic concentration, CEM cell proliferation, Table 1.
[18] abbreviates: inhibition of cell proliferation, Table 2.

`C[C@H](Cn1cnc2c(N)ncnc21)OCP(=O)(O)O` [(R)-PMPA, (R)-9-[(2-phosphonomethoxy)-propyl]adenine, reference compound]: the “CC50 MT-4” value in [1] came out at 72 ± 12 µg/mL (≈ 251 µM). Moreover, in [2], the “CC50 M/M” value was greater than 100 µg/mL. Further, the “CC50 CrFK” value in series [3] is greater than 100 µg/mL. Also, the “CC50 (CEM)” value in series [4] (setting [17]) stood at 125 µg/mL (≈ 435 µM); in [4] (setting [18]), 125 ± 26 µg/mL (≈ 435 µM).

Turning to `C[C@H](COc1cc(N)nc(N)n1)OCP(=O)(O)O` [Compound 11, 2,4-diamino-6-(R)-[2-(phosphonomethoxy)propoxy]pyrimidine], the “Antiviral Activity EC50 CMV AD-169” value in series [5] is greater than 50 µg/mL. Further, the “Antiviral Activity EC50 VZV TK + YS” value in [6] was determined as 5.9 µg/mL. In addition, in series [7], the “Antiviral Activity EC50 CMV Davis” value was greater than 50 µg/mL. Further, the “CC50 MT-4” value in series [1] is listed as “≧100 μg/ml”. In series [8], the “Antiviral Activity EC50 VZV TK − 07/1” value is 6.3 µg/mL. Also, the “Antiviral Activity EC50 VZV TK − YS/R” value in [9] turned out to be 5.7 µg/mL. In addition, the “CC50 M/M” value in series [2] is greater than 100 µg/mL. Also, the “Antiviral Activity EC50 HIV-1” value in series [10] came out at 1.9 µg/mL. Besides, in series [3], the “CC50 CrFK” value was greater than 100 µg/mL. The “CC50 for CEM cells” value in series [4] is “around 60 μg/mL”. In addition, the “CC50 (CEM)” value turned out to be 62 µg/mL (≈ 223 µM) in series [4] (setting [17]) and 62 ± 25 µg/mL (≈ 223 µM) in series [4] (setting [18]). Further, the “Antiviral Activity EC50 HSV-1 (KOS)” value in series [11] turned out to be 16 µg/mL. In [12], the “Antiviral Activity EC50 HSV-2 (G)” value was 48 µg/mL. For the same compound, the “Antiviral Activity EC50 VZV TK + OKA” value in series [13] came out at 3.8 µg/mL. Further, in series [14], the “Antiviral Activity EC50 MSV” value was 0.05 µg/mL. In addition, the “Antiviral Activity EC50 HSV-1 TK- VMW 1837” value in [15] is 9.6 µg/mL. In [16], the “Antiviral Activity EC50 HIV-2” value turned out to be 1.3 µg/mL.
